We go through two compounds from US6921840B1 (The Trustees of the University of Pennsylvania, priority 1999, dated 2005).

The term IC50 denotes the midpoint of a concentration-inhibition curve. As usually defined, the Ki is a measure of affinity in units of concentration, obtained from inhibition or displacement.

For data set [1], the target named is T1, serotonin uptake (SERT) (Rattus norvegicus, UniProt P31652).
T1 construct: host or cells: rat brain synaptosomes
Particulars: taken from Ferris et al. 1995; read-out: IC50 for inhibition on substrate uptake, SERT; cited from earlier work.

Data set [2] concerns the target DAT (Rattus norvegicus, UniProt P23977). As to conditions: taken from Ferris et al. 1995; read-out: IC50 for inhibition on substrate uptake, DAT; cited from earlier work.
In data set [3] the target is T2, norepinephrine uptake (NET) (Rattus norvegicus, UniProt Q63380).
T2 construct: host or cells: rat brain synaptosomes
As to conditions: cited from earlier work.

The nature of data set [4]: In vitro stability of radioiodinated ligand. Type of data set: physicochemical. Particulars: prolonged standing (>20 hr) at 0-4° C. in saline solution.
The test system of data set [5] is serotonin transporters. Nature of the data set: SPECT imaging in baboons. As to conditions: baboon, 120 minutes post-i.v. injection. An excerpt:
The acquisition of SPECT images were obtained by a triple-head gamma camera equipped with ultra high resolution fan-beam collimators (Picker Prism 3000). […] The projection images were reconstructed by filtered-back projection. Then, a 3D, low pass Butterworth filter was applied. For uniform attenuation correction, Chang's first order method was used.

T2 sequence (Q63380 1-617): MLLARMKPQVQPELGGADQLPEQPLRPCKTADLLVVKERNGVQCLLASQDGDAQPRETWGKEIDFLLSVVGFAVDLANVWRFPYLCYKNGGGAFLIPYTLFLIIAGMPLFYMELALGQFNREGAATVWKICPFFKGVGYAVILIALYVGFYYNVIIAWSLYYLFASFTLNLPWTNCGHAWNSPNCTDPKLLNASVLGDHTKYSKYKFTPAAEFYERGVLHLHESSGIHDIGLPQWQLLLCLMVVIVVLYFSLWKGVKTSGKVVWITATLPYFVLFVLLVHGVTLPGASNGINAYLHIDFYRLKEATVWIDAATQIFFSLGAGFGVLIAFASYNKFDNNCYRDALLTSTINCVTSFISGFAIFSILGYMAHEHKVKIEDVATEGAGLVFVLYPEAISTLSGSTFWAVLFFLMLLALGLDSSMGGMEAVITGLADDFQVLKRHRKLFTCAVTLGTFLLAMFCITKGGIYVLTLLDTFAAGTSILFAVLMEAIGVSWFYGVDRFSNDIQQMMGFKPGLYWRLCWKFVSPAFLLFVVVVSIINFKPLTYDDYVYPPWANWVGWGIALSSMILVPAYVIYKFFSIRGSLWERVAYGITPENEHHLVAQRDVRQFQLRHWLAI
T1 sequence (P31652 whole entry): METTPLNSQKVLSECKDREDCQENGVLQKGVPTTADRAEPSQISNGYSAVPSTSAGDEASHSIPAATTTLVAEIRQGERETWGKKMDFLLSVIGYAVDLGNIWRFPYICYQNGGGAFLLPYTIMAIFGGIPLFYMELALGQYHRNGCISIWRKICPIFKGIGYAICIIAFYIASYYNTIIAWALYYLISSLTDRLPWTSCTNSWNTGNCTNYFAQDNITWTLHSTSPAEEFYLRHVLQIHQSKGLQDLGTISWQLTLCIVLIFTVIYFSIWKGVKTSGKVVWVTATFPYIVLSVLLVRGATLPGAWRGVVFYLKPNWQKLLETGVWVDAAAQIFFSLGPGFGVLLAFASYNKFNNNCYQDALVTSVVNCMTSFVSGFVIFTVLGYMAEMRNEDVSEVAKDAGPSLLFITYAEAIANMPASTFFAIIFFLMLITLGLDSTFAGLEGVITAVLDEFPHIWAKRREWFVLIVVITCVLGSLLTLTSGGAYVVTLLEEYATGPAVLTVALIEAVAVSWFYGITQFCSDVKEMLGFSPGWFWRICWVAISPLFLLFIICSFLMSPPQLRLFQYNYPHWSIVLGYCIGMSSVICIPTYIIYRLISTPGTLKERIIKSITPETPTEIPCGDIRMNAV
DAT, sequence (P23977 whole entry): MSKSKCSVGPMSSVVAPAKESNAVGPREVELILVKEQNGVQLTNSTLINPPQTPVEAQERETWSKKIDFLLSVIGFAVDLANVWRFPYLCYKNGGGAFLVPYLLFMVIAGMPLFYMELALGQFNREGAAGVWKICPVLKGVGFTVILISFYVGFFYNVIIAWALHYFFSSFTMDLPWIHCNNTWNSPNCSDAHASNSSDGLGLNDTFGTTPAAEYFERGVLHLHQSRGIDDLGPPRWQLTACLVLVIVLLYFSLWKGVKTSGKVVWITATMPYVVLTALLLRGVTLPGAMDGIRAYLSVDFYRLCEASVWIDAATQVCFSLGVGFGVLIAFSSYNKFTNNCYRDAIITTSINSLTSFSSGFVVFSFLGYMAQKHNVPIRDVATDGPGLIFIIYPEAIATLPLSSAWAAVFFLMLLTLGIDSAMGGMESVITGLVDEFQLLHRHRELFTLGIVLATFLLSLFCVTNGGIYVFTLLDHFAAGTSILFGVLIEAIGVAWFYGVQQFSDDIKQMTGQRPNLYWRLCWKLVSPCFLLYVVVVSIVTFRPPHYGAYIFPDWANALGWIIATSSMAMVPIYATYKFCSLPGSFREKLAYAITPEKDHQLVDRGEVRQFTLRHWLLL

For the compound `CN(C)Cc1ccccc1Sc1ccc(Cl)cc1CO` [403U76, 5-chloro-2-((2-((dimethyl-amino)methyl)phenyl)thio)benzyl alcohol], the IC50 in data set [1] was 2.1 ± 0.4 nM; in data set [2], over 1000 nM; in data set [3] (taken from Ferris et al. 1995, read-out: IC50 for inhibition on substrate uptake, NET), 55 ± 10 nM. Besides, the Ki in data set [3] (rat brain synaptosomes) was 55 nM.
Regarding `CN(C)Cc1ccccc1Sc1ccc(I)cc1CO` [[^123I]IDAM], in data set [4], the in vitro stability entry is given as “no decomposition observed”. In data set [5], the “ratio of MB/CER uptake” value is listed as 2.4.
